Measured values as given in patent publication US10183914B2 (BAYER CROPSCIENCE AKTIENGESELLSCHAFT, priority 2014, dated 2019).

What was measured:
[1] = logp (HCOOH), physicochemical characterization
[2] = system: Triticum aestivum (spring); assay: Pre-emergence herbicidal effect and crop plant compatibility; type: in vivo; conditions: 3 weeks
Summary of the method: (§1)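 Weed and crop seeds are sown in wood-fiber pots, covered with soil, then treated on the soil surface with aqueous suspensions or emulsions of WP or EC formulations. Application volume is 600 to 800 L/ha with 0.2% wetting agent. After 3 weeks in the greenhouse, damage is scored visually against untreated plants.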

Zea mays [3] = assay: as above; type: in vivo; conditions: 3 weeks
Summary of the method: as §1

Alopecurus myosuroides [4] = assay: Pre-emergence herbicidal effect; type: in vivo; conditions: 320 g/ha, 3 weeks
Summary of the method: as §1

Amaranthus retroflexus = assay: Pre-emergence herbicidal effect; type: in vivo; conditions: 3 weeks
Summary of the method: as §1

Avena fatua [5] = assay: Pre-emergence herbicidal effect; type: in vivo; conditions: 320 g/ha, 3 weeks
Summary of the method: as §1

Echinochloa crus-galli [6] = assay: Pre-emergence herbicidal effect; type: in vivo; conditions: 3 weeks
Summary of the method: as §1

Lolium multiflorum [7] = assay: Pre-emergence herbicidal effect; type: in vivo; conditions: 3 weeks
Summary of the method: as §1

Matricaria inodora = assay: Pre-emergence herbicidal effect; type: in vivo; conditions: 3 weeks
Summary of the method: as §1

Polygonum convolvulus = assay: Pre-emergence herbicidal effect; type: in vivo; conditions: 3 weeks
Summary of the method: as §1

Setaria viridis [8] = assay: Pre-emergence herbicidal effect; type: in vivo; conditions: 3 weeks
Summary of the method: as §1

Stellaria media = assay: Pre-emergence herbicidal effect; type: in vivo; conditions: 3 weeks
Summary of the method: as §1

Veronica persica = assay: Pre-emergence herbicidal effect; type: in vivo; conditions: 3 weeks
Summary of the method: as §1

Viola tricolor = assay: Pre-emergence herbicidal effect; type: in vivo; conditions: 3 weeks
Summary of the method: as §1

Brassica napus = assay: Post-emergence herbicidal effect and crop plant compatibility; type: in vivo; conditions: 80 g/ha, visual scoring after about 3 weeks
Summary of the method: (§2)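 Greenhouse post-emergence spray; sandy loam; one-leaf stage (2–3 wk post-sowing); WP/EC as aqueous suspension or emulsion, 600 to 800 L/ha water + 0.2% wetting agent; visual % efficacy at ~3 wk vs untreated (100% = dead, 0% = as control).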

Oryza sativa [9] = assay: as above; type: in vivo; conditions: visual scoring after about 3 weeks
Summary of the method: as §2

[10] = system: Triticum aestivum (spring); assay: as above; type: in vivo; conditions: visual scoring after about 3 weeks
Summary of the method: as §2

Zea mays [11] = assay: as above; type: in vivo; conditions: visual scoring after about 3 weeks
Summary of the method: as §2

Oryza sativa [12] = assay: Pre-emergence herbicidal effect and crop plant compatibility; type: in vivo; conditions: 3 weeks
Summary of the method: as §1

Abutilon theophrasti = assay: Pre-emergence herbicidal effect; type: in vivo; conditions: 3 weeks
Summary of the method: as §1

Ipomoea purpurea [13] = assay: Pre-emergence herbicidal effect; type: in vivo; conditions: 320 g/ha, 3 weeks
Summary of the method: as §1

Alopecurus myosuroides [14] = assay: Post-emergence herbicidal effect; type: in vivo; conditions: 320 g/ha, visual scoring after about 3 weeks
Summary of the method: as §2

Avena fatua [15] = assay: Post-emergence herbicidal effect; type: in vivo; conditions: 320 g/ha, visual scoring after about 3 weeks
Summary of the method: as §2

Echinochloa crus-galli [16] = assay: Post-emergence herbicidal effect; type: in vivo; conditions: visual scoring after about 3 weeks
Summary of the method: as §2

Ipomoea purpurea [17] = assay: Post-emergence herbicidal effect; type: in vivo; conditions: scoring after about 3 weeks
Summary of the method: as §2

Lolium multiflorum [18] = assay: Post-emergence herbicidal effect; type: in vivo; conditions: 320 g/ha, visual scoring after about 3 weeks
Summary of the method: as §2

Setaria viridis [19] = assay: Post-emergence herbicidal effect; type: in vivo; conditions: 320 g/ha (dose by row order of upper half), scoring after about 3 weeks
Summary of the method: as §2

CC1CC(=O)c2cnc(N[C@@H]3CCCc4ccccc43)nc2C1 (some centres unmarked) [2.26]
logp (HCOOH) [1]: oily; logp (HCOOH): 3.45; 1H-NMR (CDCl3, 400 MHZ, δ in ppm): 1.15 (m, 3H, CH3); | TRZAS herbicidal activity in percent ([2]; 80 g/ha): 0% | ZEAMX herbicidal activity in percent (Zea mays [3]; 80 g/ha): 0% | ALOMY herbicidal activity in percent (Alopecurus myosuroides [4]): 90% | AMARE herbicidal activity in percent (Amaranthus retroflexus; 80 g/ha): 100% | AMARE herbicidal activity in percent (Amaranthus retroflexus; 320 g/ha): 100% | AVEFA herbicidal activity in percent (Avena fatua [5]): 90% | ECHCG herbicidal activity in percent (Echinochloa crus-galli [6]; 80 g/ha): 80% | ECHCG herbicidal activity in percent (Echinochloa crus-galli [6]; 320 g/ha): 100% | LOLMU herbicidal activity in percent (Lolium multiflorum [7]; 320 g/ha): 100% | MATIN herbicidal activity in percent (Matricaria inodora; 320 g/ha): 100% | POLCO herbicidal activity in percent (Polygonum convolvulus; 320 g/ha): 100% | SETVI herbicidal activity in percent (Setaria viridis [8]; 320 g/ha): 90% | STEME herbicidal activity in percent (Stellaria media; 80 g/ha): 100% | STEME herbicidal activity in percent (Stellaria media; 320 g/ha): 100% | VERPE herbicidal activity in percent (Veronica persica; 80 g/ha): 80% | VERPE herbicidal activity in percent (Veronica persica; 320 g/ha): 100% | VIOTR herbicidal activity in percent (Viola tricolor; 80 g/ha): 90% | VIOTR herbicidal activity in percent (Viola tricolor; 320 g/ha): 100% | post-emergence efficacy BRSNW (Brassica napus): 20% | post-emergence efficacy ORYSA (Oryza sativa [9]; 80 g/ha): 0% | post-emergence efficacy ORYSA (Oryza sativa [9]; 320 g/ha): 0% | post-emergence efficacy TRZAS ([10]; 80 g/ha): 0% | post-emergence efficacy TRZAS ([10]; 320 g/ha): 0% | post-emergence efficacy ZEAMX (Zea mays [11]; 80 g/ha): 0% | post-emergence efficacy ZEAMX (Zea mays [11]; 320 g/ha): 0%

Cc1ccc2c(c1)[C@H](Nc1ncc3c(n1)CC(C)(C)CC3=O)[C@@H](C)C2 [2.45]
logp (HCOOH) [1]: oily; logp (HCOOH): 4.23; 1H-NMR (CDCl3, 400 MHZ, δ in ppm): 1.10 (m, 6H, | ORYSA herbicidal activity in percent (Oryza sativa [12]; 80 g/ha): 0% | ORYSA herbicidal activity in percent (Oryza sativa [12]; 320 g/ha): 10% | ZEAMX herbicidal activity in percent (Zea mays [3]; 80 g/ha): 10% | ABUTH herbicidal activity in percent (Abutilon theophrasti; 80 g/ha): 80% | ABUTH herbicidal activity in percent (Abutilon theophrasti; 320 g/ha): 80% | ALOMY herbicidal activity in percent (Alopecurus myosuroides [4]): 90% | AMARE herbicidal activity in percent (Amaranthus retroflexus; 80 g/ha): 100% | AMARE herbicidal activity in percent (Amaranthus retroflexus; 320 g/ha): 100% | AVEFA herbicidal activity in percent (Avena fatua [5]): 80% | ECHCG herbicidal activity in percent (Echinochloa crus-galli [6]; 80 g/ha): 100% | ECHCG herbicidal activity in percent (Echinochloa crus-galli [6]; 320 g/ha): 100% | PHBPU herbicidal activity in percent (Ipomoea purpurea [13]): 90% | LOLMU herbicidal activity in percent (Lolium multiflorum [7]; 80 g/ha): 80% | LOLMU herbicidal activity in percent (Lolium multiflorum [7]; 320 g/ha): 100% | MATIN herbicidal activity in percent (Matricaria inodora; 80 g/ha): 90% | MATIN herbicidal activity in percent (Matricaria inodora; 320 g/ha): 90% | POLCO herbicidal activity in percent (Polygonum convolvulus; 80 g/ha): 100% | POLCO herbicidal activity in percent (Polygonum convolvulus; 320 g/ha): 100% | SETVI herbicidal activity in percent (Setaria viridis [8]; 80 g/ha): 100% | SETVI herbicidal activity in percent (Setaria viridis [8]; 320 g/ha): 100% | STEME herbicidal activity in percent (Stellaria media; 80 g/ha): 100% | STEME herbicidal activity in percent (Stellaria media; 320 g/ha): 100% | VERPE herbicidal activity in percent (Veronica persica; 80 g/ha): 100% | VERPE herbicidal activity in percent (Veronica persica; 320 g/ha): 100% | VIOTR herbicidal activity in percent (Viola tricolor; 80 g/ha): 100% | VIOTR herbicidal activity in percent (Viola tricolor; 320 g/ha): 100% | post-emergence efficacy ORYSA (Oryza sativa [9]; 80 g/ha): 20% | post-emergence efficacy TRZAS ([10]; 80 g/ha): 10% | post-emergence efficacy TRZAS ([10]; 320 g/ha): 10% | post-emergence efficacy ZEAMX (Zea mays [11]; 80 g/ha): 0% | post-emergence efficacy ZEAMX (Zea mays [11]; 320 g/ha): 0% | post-emergence efficacy ALOMY (Alopecurus myosuroides [14]): 80% | post-emergence efficacy AVEFA (Avena fatua [15]): 80% | post-emergence efficacy ECHCG (Echinochloa crus-galli [16]; 80 g/ha): 100% | post-emergence efficacy ECHCG (Echinochloa crus-galli [16]; 320 g/ha): 100% | post-emergence efficacy PHBPU (Ipomoea purpurea [17]; 80 g/ha (dose by row order of upper half)): 100% | post-emergence efficacy PHBPU (Ipomoea purpurea [17]; 320 g/ha (dose by row order of upper half)): 100% | post-emergence efficacy LOLMU (Lolium multiflorum [18]): 100% | post-emergence efficacy SETVI (Setaria viridis [19]): 90%

Cc1ccc2c(c1)[C@H](Nc1ncc3c(n1)CC(c1ccc(F)cc1)CC3=O)[C@@H](C)C2 (some centres unmarked) [2.52]
logp (HCOOH) [1]: oily; logp (HCOOH): 4.87; 1H-NMR (CDCl3, 400 MHZ, δ in ppm): 1.25 (t, 3H, CH3); | ORYSA herbicidal activity in percent (Oryza sativa [12]; 80 g/ha): 0% | ORYSA herbicidal activity in percent (Oryza sativa [12]; 320 g/ha): 20% | TRZAS herbicidal activity in percent ([2]; 80 g/ha): 0% | TRZAS herbicidal activity in percent ([2]; 320 g/ha): 30% | ZEAMX herbicidal activity in percent (Zea mays [3]; 80 g/ha): 0% | ZEAMX herbicidal activity in percent (Zea mays [3]; 320 g/ha): 10% | ABUTH herbicidal activity in percent (Abutilon theophrasti; 320 g/ha): 0% | AMARE herbicidal activity in percent (Amaranthus retroflexus; 320 g/ha): 100% | ECHCG herbicidal activity in percent (Echinochloa crus-galli [6]; 320 g/ha): 100% | LOLMU herbicidal activity in percent (Lolium multiflorum [7]; 320 g/ha): 90% | MATIN herbicidal activity in percent (Matricaria inodora; 320 g/ha): 100% | POLCO herbicidal activity in percent (Polygonum convolvulus; 320 g/ha): 60% | SETVI herbicidal activity in percent (Setaria viridis [8]; 320 g/ha): 70% | STEME herbicidal activity in percent (Stellaria media; 320 g/ha): 100% | VERPE herbicidal activity in percent (Veronica persica; 80 g/ha): 90% | VERPE herbicidal activity in percent (Veronica persica; 320 g/ha): 100% | VIOTR herbicidal activity in percent (Viola tricolor; 80 g/ha): 100% | VIOTR herbicidal activity in percent (Viola tricolor; 320 g/ha): 100% | post-emergence efficacy BRSNW (Brassica napus): 20% | post-emergence efficacy ORYSA (Oryza sativa [9]; 80 g/ha): 0% | post-emergence efficacy ORYSA (Oryza sativa [9]; 320 g/ha): 0% | post-emergence efficacy TRZAS ([10]; 80 g/ha): 0% | post-emergence efficacy TRZAS ([10]; 320 g/ha): 0% | post-emergence efficacy ZEAMX (Zea mays [11]; 80 g/ha): 0% | post-emergence efficacy ZEAMX (Zea mays [11]; 320 g/ha): 0%
